Experimental data from patent US6900219B2, “ABCA-1 elevating compounds” (CV Therapeutics, Inc., priority 2002, dated 2005).

tested on: ABCA-1 gene; assay: compounds tested and found to elevate cellular expression of the ABCA-1 gene (Examples 1-6; test not named); type: cell-based
Experimental: Activity testing is conducted as described in those patents and patent applications referenced above, and in the Examples below, and by methods apparent to one skilled in the art.

| Structure (SMILES) | cellular expression of the ABCA-1 gene |
| --- | --- |
| Cc1ccc2nc(/C(C#N)=C/c3ccco3)[nH]c2c1 [(2E)-3-(2-furyl)-2-(5-methylbenzimidazol-2-yl)prop-2-enenitrile] | elevate cellular expression of the ABCA-1 gene |
| O=C(/C=C/c1ccccc1)NCCN(C(=O)Nc1cccc(C(F)(F)F)c1)c1ccccc1 [(2E)-3-phenyl-N-[2-(phenyl {N-[3-(trifluoromethyl)phenyl]carbamoyl}amino)ethyl]prop-2-enamide] | elevate cellular expression of the ABCA-1 gene |
| O=C(Nc1cccc(Cl)c1)Nc1ccc2c(c1)OCCO2 [(2H,3H-benzo[e]1,4-dioxin-6-ylamino)-N-(3-chlorophenyl)lcarboxamide] | elevate cellular expression of the ABCA-1 gene |
| O=C(Nc1ccc2c(c1)OCCO2)NC1CCCCC1 [(2H,3H-benzo[e]1,4-dioxin-6-ylamino)-N-cyclohexylcarboxamide] | elevate cellular expression of the ABCA-1 gene |
| COc1cc(C(=O)NC2=NCCS2)cc(OC)c1OC [(3,4,5-trimethoxyphenyl)-N-(1,3-thiazolin-2-yl)carboxamide] | elevate cellular expression of the ABCA-1 gene |
| COc1cc(C(=O)NC2=NC(=O)CS2)cc(OC)c1OC [(3,4,5-trimethoxyphenyl)-N-(4-oxo(1,3-thiazolin-2-yl))carboxamide] | elevate cellular expression of the ABCA-1 gene |
| O=C(NC1=NCCS1)c1ccc(Cl)c(Cl)c1 [(3,4-dichlorophenyl)-N-(1,3-thiazolin-2-yl)carboxamide] | elevate cellular expression of the ABCA-1 gene |
| O=C1CSC(NC(=O)c2ccc(Cl)c(Cl)c2)=N1 [(3,4-dichlorophenyl)-N-(4-oxo(1,3-thiazolin-2-yl))carboxamide] | elevate cellular expression of the ABCA-1 gene |
| O=C(Nc1nc2ccccc2c(=O)o1)c1ccc(Cl)c(Cl)c1 [(3,4-dichlorophenyl)-N-(4-oxobenzo[d]1,3-oxazin-2-yl)carboxamide] | elevate cellular expression of the ABCA-1 gene |
| O=C(NC1=NCCS1)c1ccc(F)c(F)c1 [(3,4-difluorophenyl)-N-(1,3-thiazolin-2-yl)carboxamide] | elevate cellular expression of the ABCA-1 gene |
| O=C1CSC(NC(=O)c2ccc(F)c(F)c2)=N1 [(3,4-difluorophenyl)-N-(4-oxo(1,3-thiazolin-2-yl))carboxamide] | elevate cellular expression of the ABCA-1 gene |
| Cc1ccc(C(=O)Nc2nc(-c3ccccc3)cs2)cc1C [(3,4-dimethylphenyl)-N-(4-phenyl(1,3-thiazol-2-yl))carboxamide] | elevate cellular expression of the ABCA-1 gene |
| O=C(NC1=NCCS1)c1cc(C(F)(F)F)cc(C(F)(F)F)c1 [(3,5-bistrifluoromethylphenyl)-N-(1,3-thiazolin-2-yl)carboxamide] | elevate cellular expression of the ABCA-1 gene |
| COc1cc(OC)cc(C(=O)NC2=NCCS2)c1 [(3,5-dimethoxyphenyl)-N-(1,3-thiazolin-2-yl)carboxamide] | elevate cellular expression of the ABCA-1 gene |
| COc1cc(OC)cc(C(=O)NC2=NC(=O)CS2)c1 [(3,5-dimethoxyphenyl)-N-(4-oxo(1,3-thiazolin-2-yl))carboxamide] | elevate cellular expression of the ABCA-1 gene |
| O=C(Nc1ccc2ccccc2c1)c1sc2ccccc2c1Cl [(3-chlorobenzo[b]thiophen-2-yl)-N-(2-naphthyl)carboxamide] | elevate cellular expression of the ABCA-1 gene |
| O=C(NCCc1ccccn1)c1sc2ccccc2c1Cl [(3-chlorobenzo[b]thiophen-2-yl)-N-(2-pyridyl)ethyl)carboxamide] | elevate cellular expression of the ABCA-1 gene |
| Cc1cccc(NC(=O)c2sc3ccccc3c2Cl)c1 [(3-chlorobenzo[b]thiophen-2-yl)-N-(3-methylphenyl)carboxamide] | elevate cellular expression of the ABCA-1 gene |
| O=C(Nc1ccc(Br)cc1)c1sc2ccccc2c1Cl [(3-chlorobenzo[b]thiophen-2-yl)-N-(4-bromophenyl)carboxamide] | elevate cellular expression of the ABCA-1 gene |
| O=C(Nc1ccc(Cl)cc1)c1sc2ccccc2c1Cl [(3-chlorobenzo[b]thiophen-2-yl)-N-(4-chlorophenyl)carboxamide] | elevate cellular expression of the ABCA-1 gene |
| O=C(NC1=NCCS1)c1cccc(Cl)c1 [(3-chlorophenyl)-N-(1,3-thiazolin-2-yl)carboxamide] | elevate cellular expression of the ABCA-1 gene |

| Structure (SMILES) | cellular expression of the ABCA-1 gene |
| --- | --- |
| O=C1CSC(NC(=O)c2cccc(Cl)c2)=N1 [(3-chlorophenyl)-N-(4-oxo(1,3-thiazolin-2-yl))carboxamide] | elevate cellular expression of the ABCA-1 gene |
| O=C(NC1=NCCS1)c1cccc(F)c1 [(3-fluorophenyl)-N-(1,3-thiazolin-2-yl)carboxamide] | elevate cellular expression of the ABCA-1 gene |
| O=C1CSC(NC(=O)c2cccc(F)c2)=N1 [(3-fluorophenyl)-N-(4-oxo(1,3-thiazolin-2-yl))carboxamide] | elevate cellular expression of the ABCA-1 gene |
| COc1cccc(C(=O)NC2=NCCS2)c1 [(3-methoxyphenyl)-N-(1,3-thiazolin-2-yl)carboxamide] | elevate cellular expression of the ABCA-1 gene |
| COc1cccc(C(=O)NC2=NC(=O)CS2)c1 [(3-methoxyphenyl)-N-(4-oxo(1,3-thiazolin-2-yl))carboxamide] | elevate cellular expression of the ABCA-1 gene |
| O=C(c1ccc(Br)cc1)N(CCc1ccccc1)Cc1ccc(C(F)(F)F)cc1 [(4-bromophenyl)-N-(2-phenylethyl)-N-{[4-(trifluoromethyl)phenyl]methyl}-carboxamide] | elevate cellular expression of the ABCA-1 gene |
| O=C(NC1=NCCS1)c1ccc(Cl)cc1 [(4-chlorophenyl)-N-(1,3-thiazolin-2-yl)carboxamide] | elevate cellular expression of the ABCA-1 gene |
| O=C(Nc1ccc(Cl)cc1)c1ccc(Cl)cc1 [(4-chlorophenyl)-N-(4-chlorophenyl)carboxamide] | elevate cellular expression of the ABCA-1 gene |
| O=C1CSC(NC(=O)c2ccc(Cl)cc2)=N1 [(4-chlorophenyl)-N-(4-oxo(1,3-thiazolin-2-yl))carboxamide] | elevate cellular expression of the ABCA-1 gene |
| O=C(Nc1nc2ccccc2c(=O)o1)c1ccc(Cl)cc1 [(4-chlorophenyl)-N-(4-oxobenzo[d]1,3-oxazin-2-yl)carboxamide] | elevate cellular expression of the ABCA-1 gene |
| Cc1ccc(-c2cnc(NC(=O)c3ccc(Cl)cc3)s2)cc1 [(4-chlorophenyl)-N-[5-(4-methylphenyl)(1,3-thiazol-2-yl)]carboxamide] | elevate cellular expression of the ABCA-1 gene |
| Cn1cccc1CN(CCc1ccccn1)C(=O)c1ccc(Cl)cc1 [(4-chlorophenyl)-N-[(1-methylpyrrol-2-yl)methyl]-N-(2-(2-pyridyl)ethyl)carboxamide] | elevate cellular expression of the ABCA-1 gene |
| N#Cc1ccc(C(=O)NC2=NCCS2)cc1 [(4-cyanophenyl)-N-(1,3-thiazolin-2-yl)carboxamide] | elevate cellular expression of the ABCA-1 gene |
| N#Cc1ccc(C(=O)Nc2nc(-c3ccc4ccccc4c3)cs2)cc1 [(4-cyanophenyl)-N-(4-(2-naphthyl)(1,3-thiazol-2-yl))carboxamide] | elevate cellular expression of the ABCA-1 gene |
| N#Cc1ccc(C(=O)NC2=NC(=O)CS2)cc1 [(4-cyanophenyl)-N-(4-oxo(1,3-thiazolin-2-yl))carboxamide] | elevate cellular expression of the ABCA-1 gene |
| N#Cc1ccc(C(=O)Nc2nc(-c3ccccc3)cs2)cc1 [(4-cyanophenyl)-N-(4-phenyl(1,3-thiazol-2-yl))carboxamide] | elevate cellular expression of the ABCA-1 gene |
| N#Cc1ccc(C(=O)Nc2ncc(-c3ccccc3)s2)cc1 [(4-cyanophenyl)-N-(5-phenyl(1,3-thiazol-2-yl))carboxamide] | elevate cellular expression of the ABCA-1 gene |
| CCc1ccc(C(=O)NCCN(C(=O)Nc2ccc([N+](=O)[O-])cc2)c2ccccc2)cc1 [(4-ethylphenyl)-N-(2-{[N-(4-nitrophenyl)carbamoyl]phenylamino}ethyl)carboxamide] | elevate cellular expression of the ABCA-1 gene |
| CCc1ccc(C(=O)NCCN(C(=O)Nc2ccc(Oc3ccccc3)cc2)c2ccccc2)cc1 [(4-ethylphenyl)-N-(2-{phenyl[N-(4-phenoxyphenyl)carbamoyl]amino}ethyl) carboxamide] | elevate cellular expression of the ABCA-1 gene |
| CCc1ccc(C(=O)N(CCc2ccccn2)Cc2ccccc2[N+](=O)[O-])cc1 [(4-ethylphenyl)-N-[(2-nitrophenyl)methyl]-N-(2-(2-pyridyl)ethyl)carboxamide] | elevate cellular expression of the ABCA-1 gene |
| O=C(NC1=NCCS1)c1ccc(F)cc1 [(4-fluorophenyl)-N-(1,3-thiazolin-2-yl)carboxamide] | elevate cellular expression of the ABCA-1 gene |
